Data published in ChEMBL document CHEMBL4229379, “Synthesis and structure-activity relationship of novel bisindole amidines active against MDR Gram-positive and Gram-negative bacteria” (Eur J Med Chem, 2018).
Values after ≈ are worked out from the molar mass of the structure shown.

Experiments:
Enterococcus faecium [1] = assay: Antibacterial activity against vancomycin-resistant Enterococcus faecium ATCC 700221 after 18 hrs by CLSI broth microdilution method; format: functional; details: ATCC 700221, 18 h
Enterobacter cloacae = assay: Antibacterial activity against Enterobacter cloacae ATCC 43560 after 18 hrs by CLSI broth microdilution method; format: functional; details: ATCC 43560, 18 h
Enterococcus faecalis [2] = assay: Antibacterial activity against vancomycin-resistant Enterococcus faecalis 09-9 after 18 hrs by CLSI broth microdilution method; format: functional; details: 09-9, 18 h
Enterococcus faecium [3] = assay: Antibacterial activity against vancomycin-resistant Enterococcus faecium 12-1 after 18 hrs by CLSI broth microdilution method; format: functional; details: 12-1, 18 h
Escherichia coli [4] = assay: Antibacterial activity against extended-spectrum beta-lactamase deficient Escherichia coli ATCC 25922 after 18 hrs by CLSI broth microdilution method; format: functional; details: ATCC 25922, 18 h
[5] = system: Staphylococcus epidermidis; assay: Antibacterial activity against methicillin-resistant Staphylococcus epidermidis 12-8 after 18 hrs by CLSI broth microdilution method; format: functional; details: 12-8, 18 h
Klebsiella aerogenes = assay: Antibacterial activity against Enterobacter aerogenes ATCC 13048 after 18 hrs by CLSI broth microdilution method; format: functional; details: ATCC 13048, 18 h
Klebsiella pneumoniae [6] = assay: Antibacterial activity against extended-spectrum beta-lactamase harboring Klebsiella pneumoniae ATCC 700603 after 18 hrs by CLSI broth microdilution method; format: functional; details: Klebsiella pneumoniae, 700603, 18 h
Escherichia coli [7] = assay: Antibacterial activity against extended-spectrum beta-lactamase deficient Escherichia coli 1515 after 18 hrs by CLSI broth microdilution method; format: functional; details: Escherichia coli, 1515, 18 h
Staphylococcus aureus [8] = assay: Antibacterial activity against methicillin-resistant Staphylococcus aureus 12-33 after 18 hrs by CLSI broth microdilution method; format: functional; details: 12-33, 18 h
Pseudomonas aeruginosa [9] = assay: Antibacterial activity against Pseudomonas aeruginosa 12-16 after 18 hrs by CLSI broth microdilution method; format: functional; details: 12-16, 18 h
Citrobacter freundii = assay: Antibacterial activity against Citrobacter freundii ATCC 43864 after 18 hrs by CLSI broth microdilution method; format: functional; details: ATCC 43864, 18 h
Escherichia coli [10] = assay: Antibacterial activity against extended-spectrum beta-lactamase harboring Escherichia coli 12-15 after 18 hrs by CLSI broth microdilution method; format: functional; details: 12-15, 18 h
Providencia rettgeri = assay: Antibacterial activity against Providencia rettgeri ATCC 31052 after 18 hrs by CLSI broth microdilution method; format: functional; details: ATCC 31052, 18 h
Klebsiella pneumoniae [11] = assay: Antibacterial activity against new delhi metallo-beta-lactamase-1 harboring Klebsiella pneumoniae ATCC BAA-2146 after 18 hrs by CLSI broth microdilution method; format: functional; details: ATCC BAA-2146, 18 h
[12] = Cytotoxicity against HEK293T cells assessed as reduction in cell viability after 48 hrs by MTS assay; format: cell-based, HEK-293T; details: human
[13] = system: Acinetobacter calcoaceticus; assay: Antibacterial activity against Acinetobacter calcoaceticus ATCC 19606 after 18 hrs by CLSI broth microdilution method; format: functional; details: ATCC 19606, 18 h
Enterococcus faecium [14] = assay: Antibacterial activity against vancomycin-sensitive Enterococcus faecium 12-3 after 18 hrs by CLSI broth microdilution method; format: functional; details: 12-3, 18 h
Pseudomonas aeruginosa [15] = assay: Antibacterial activity against Pseudomonas aeruginosa PAO1 after 18 hrs by CLSI broth microdilution method; format: functional; details: PAO1, 18 h
Enterococcus faecalis [16] = assay: Antibacterial activity against vancomycin-resistant Enterococcus faecalis ATCC 51299 after 18 hrs by CLSI broth microdilution method; format: functional; details: ATCC 51299, 18 h
Klebsiella pneumoniae [17] = assay: Antibacterial activity against extended-spectrum beta-lactamase deficient Klebsiella pneumoniae 12-4 after 18 hrs by CLSI broth microdilution method; format: functional; details: 12-4, 18 h
Staphylococcus aureus [18] = assay: Antibacterial activity against methicillin-sensitive Staphylococcus aureus ATCC 29213 after 18 hrs by CLSI broth microdilution method; format: functional; details: ATCC 29213, 18 h
[19] = system: Staphylococcus epidermidis; assay: Antibacterial activity against methicillin-sensitive Staphylococcus epidermidis 12-6 after 18 hrs by CLSI broth microdilution method; format: functional; details: 12-6, 18 h
Enterococcus faecalis [20] = assay: Antibacterial activity against vancomycin-sensitive Enterococcus faecalis ATCC 29212 after 18 hrs by CLSI broth microdilution method; format: functional; details: ATCC 29212, 18 h
Proteus mirabilis = assay: Antibacterial activity against Proteus mirabilis 12-6 after 18 hrs by CLSI broth microdilution method; format: functional; details: 12-6, 18 h
Klebsiella pneumoniae [21] = assay: Antibacterial activity against extended-spectrum beta-lactamase deficient Klebsiella pneumoniae 7 after 18 hrs by CLSI broth microdilution method; format: functional; details: Klebsiella pneumoniae, 7, 18 h
Escherichia coli [22] = assay: Antibacterial activity against extended-spectrum beta-lactamase deficient Escherichia coli 12-14 after 18 hrs by CLSI broth microdilution method; format: functional; details: 12-14, 18 h
Klebsiella pneumoniae [23] = assay: Antibacterial activity against extended-spectrum beta-lactamase harboring Klebsiella pneumoniae 12-8 after 18 hrs by CLSI broth microdilution method; format: functional; details: 12-8, 18 h
Serratia marcescens = assay: Antibacterial activity against Serratia marcescens ATCC 21074 after 18 hrs by CLSI broth microdilution method; format: functional; details: ATCC 21074, 18 h
Staphylococcus aureus [24] = assay: Antibacterial activity against methicillin-sensitive Staphylococcus aureus 15 after 18 hrs by CLSI broth microdilution method; format: functional; details: Staphylococcus aureus, 15, 18 h
Pseudomonas aeruginosa [25] = assay: Antibacterial activity against Pseudomonas aeruginosa ATCC 27853 after 18 hrs by CLSI broth microdilution method; format: functional; details: ATCC 27853, 18 h
Proteus vulgaris = assay: Antibacterial activity against Proteus vulgaris ATCC 29905 after 18 hrs by CLSI broth microdilution method; format: functional; details: ATCC 29905, 18 h
Enterococcus faecalis [26] = assay: Antibacterial activity against vancomycin-sensitive Enterococcus faecalis 12-5 after 18 hrs by CLSI broth microdilution method; format: functional; details: 12-5, 18 h
Staphylococcus aureus [27] = assay: Antibacterial activity against methicillin-resistant Staphylococcus aureus ATCC 33591 after 18 hrs by CLSI broth microdilution method; format: functional; details: ATCC 33591, 18 h
[28] = system: Staphylococcus epidermidis; assay: Antibacterial activity against methicillin-sensitive Staphylococcus epidermidis ATCC 12228 after 18 hrs by CLSI broth microdilution method; format: functional; details: ATCC 12228, 18 h
[29] = system: Stenotrophomonas maltophilia; assay: Antibacterial activity against Stenotrophomonas maltophilia ATCC 13636 after 18 hrs by CLSI broth microdilution method; format: functional; details: ATCC 13636, 18 h
Staphylococcus aureus [30] = assay: Antibacterial activity against methicillin-sensitive Staphylococcus aureus 12-28 after 18 hrs by CLSI broth microdilution method; format: functional; details: 12-28, 18 h

Structure (SMILES) | MIC (Enterococcus faecium [1]) | MIC (Enterobacter cloacae) | MIC (Enterococcus faecalis [2]) | MIC (Enterococcus faecium [3]) | MIC (Escherichia coli [4]) | MIC [5] | MIC (Klebsiella aerogenes) | MIC (Klebsiella pneumoniae [6]) | MIC (Escherichia coli [7]) | MIC (Staphylococcus aureus [8]) | MIC (Pseudomonas aeruginosa [9]) | MIC (Citrobacter freundii) | MIC (Escherichia coli [10]) | MIC (Providencia rettgeri) | MIC (Klebsiella pneumoniae [11]) | CC50 at 48 h [12] | MIC [13] | MIC (Enterococcus faecium [14]) | MIC (Pseudomonas aeruginosa [15]) | MIC (Enterococcus faecalis [16]) | also measured
CN1CCC2(CC1)CCN(C(=N)c1ccc3cc(-c4ccc(-c5cc6ccc(C(=N)N7CCC8(CCN(C)CC8)C7)cc6[nH]5)cc4)[nH]c3c1)C2 | 16 µg/mL (≈ 24 µM) | > 128 µg/mL | 16 µg/mL (≈ 24 µM) | 16 µg/mL (≈ 24 µM) | 8 µg/mL (≈ 12 µM) | 4 µg/mL (≈ 6 µM) | 16 µg/mL (≈ 24 µM) | 64 µg/mL (≈ 96 µM) | 8 µg/mL (≈ 12 µM) | 8 µg/mL (≈ 12 µM) | 128 µg/mL (≈ 192 µM) | 16 µg/mL (≈ 24 µM) | 16 µg/mL (≈ 24 µM) | > 128 µg/mL | 16 µg/mL (≈ 24 µM) | 28.4 µg/mL (≈ 42.7 µM) | > 128 µg/mL | 16 µg/mL (≈ 24 µM) | 64 µg/mL (≈ 96 µM) | 16 µg/mL (≈ 24 µM) | MIC (Klebsiella pneumoniae [17]): 16 µg/mL (≈ 24 µM); MIC (Staphylococcus aureus [18]): 8 µg/mL (≈ 12 µM); MIC [19]: 8 µg/mL (≈ 12 µM); MIC (Enterococcus faecalis [20]): 16 µg/mL (≈ 24 µM); MIC (Proteus mirabilis): > 128 µg/mL; MIC (Klebsiella pneumoniae [21]): 8 µg/mL (≈ 12 µM); MIC (Escherichia coli [22]): 16 µg/mL (≈ 24 µM); MIC (Klebsiella pneumoniae [23]): 16 µg/mL (≈ 24 µM); MIC (Serratia marcescens): > 128 µg/mL; MIC (Staphylococcus aureus [24]): 8 µg/mL (≈ 12 µM); MIC (Pseudomonas aeruginosa [25]): 32 µg/mL (≈ 48 µM); MIC (Proteus vulgaris): 128 µg/mL (≈ 192 µM); MIC (Enterococcus faecalis [26]): 128 µg/mL (≈ 192 µM); MIC (Staphylococcus aureus [27]): 8 µg/mL (≈ 12 µM); MIC [28]: 2 µg/mL (≈ 3 µM); MIC [29]: > 128 µg/mL; MIC (Staphylococcus aureus [30]): 16 µg/mL (≈ 24 µM)
N=C(c1ccc2cc(-c3ccc(-c4cc5ccc(C(=N)N6CCOCC6)cc5[nH]4)cc3)[nH]c2c1)N1CCOCC1 | 4 µg/mL (≈ 7.51 µM) | 4 µg/mL (≈ 7.51 µM) | 4 µg/mL (≈ 7.51 µM) | 2 µg/mL (≈ 3.75 µM) | 4 µg/mL (≈ 7.51 µM) | 0.5 µg/mL (≈ 0.939 µM) | 8 µg/mL (≈ 15 µM) | 16 µg/mL (≈ 30 µM) | 4 µg/mL (≈ 7.51 µM) | 0.5 µg/mL (≈ 0.939 µM) | > 128 µg/mL | 4 µg/mL (≈ 7.51 µM) | 4 µg/mL (≈ 7.51 µM) | 8 µg/mL (≈ 15 µM) | 8 µg/mL (≈ 15 µM) | 16.4 µg/mL (≈ 30.9 µM) | 32 µg/mL (≈ 60.1 µM) | 4 µg/mL (≈ 7.51 µM) | > 128 µg/mL | 4 µg/mL (≈ 7.51 µM) | MIC (Klebsiella pneumoniae [17]): 16 µg/mL (≈ 30 µM); MIC (Staphylococcus aureus [18]): 1 µg/mL (≈ 1.88 µM); MIC [19]: 0.5 µg/mL (≈ 0.939 µM); MIC (Enterococcus faecalis [20]): 4 µg/mL (≈ 7.51 µM); MIC (Proteus mirabilis): 32 µg/mL (≈ 60.1 µM); MIC (Klebsiella pneumoniae [21]): 8 µg/mL (≈ 15 µM); MIC (Escherichia coli [22]): 4 µg/mL (≈ 7.51 µM); MIC (Klebsiella pneumoniae [23]): 8 µg/mL (≈ 15 µM); MIC (Serratia marcescens): > 128 µg/mL; MIC (Staphylococcus aureus [24]): 0.5 µg/mL (≈ 0.939 µM); MIC (Pseudomonas aeruginosa [25]): > 128 µg/mL; MIC (Proteus vulgaris): 8 µg/mL (≈ 15 µM); MIC (Enterococcus faecalis [26]): 8 µg/mL (≈ 15 µM); MIC (Staphylococcus aureus [27]): 0.5 µg/mL (≈ 0.939 µM); MIC [28]: 0.5 µg/mL (≈ 0.939 µM); MIC [29]: > 128 µg/mL; MIC (Staphylococcus aureus [30]): 0.5 µg/mL (≈ 0.939 µM)
